# Measured values reported in patent US5942494A, “Stimulation of gene expression and synthesis of heat shock protein 72/73 (HSP 70)” (The Trustees of Columbia University in the City of New York, priority 1996, dated 1999).
# Tests used:
# HepG2 cells = experiment: Total incorporation of radiolabel (TCA cpm) as indicator of cell toxicity, HepG2; type: cell-based, human; conditions: HepG2, 4 hours; MG132 10 or 30 μM; lactacystin 10 μM
# Experimental: (§1) HepG2 cells were preincubated for 4 hours in serum-free MEM and then radiolabeled with ^3 H-Leucine (150 μCi/ml) in a serum-free, leucine-free medium. Preincubation and labeling media each contained either 1.5% bovine serum albumin (BSA) alone, or BSA plus ALLN (40 μg/ml except as otherwise indicated), or BSA plus other protease inhibitors at concentrations indicated in the figure legends. At the indicated times, cells were removed from the 37° C. incubator and placed on ice, washed with cold phosphate-buffer saline (PBS) twice and lysed with lysis buffer containing 1% Triton X-100 (TX100), 1% deoxycholic acid (DOC) and 0.1% SDS in PBS containing proteinase inhibitors: 2 mM phenylmethylsulfonyl fluoride (PMSF); 2 μg/ml ALLN; 2 μg/ml leupeptin; and 2 μg/ml aprotinin. After a 30 min. incubation with lysis buffer at 4° C., the lysates were centrifuged at 14,000 g in a microcentrifuge for 5 min., and the supernatants were adjusted to 1% SDS concentration and boiled for 5 min. to denature the proteins. 1% TX100 was then added to dilute the lysates to a final concentration of 0.1% SDS. Cell lysates containing equal amounts of trichloroacetic acid (TCA)-insoluble radioactivity were used for immunoprecipitations by incubating with individual monoclonal antibody (1 μg/ml) for 2.5 hours at 4° C. Protein-A Sepharose 4B was added afterwards and the lysates incubated for another 1.5 hours at 4° C. to collect the immunocomplexes. After washing four times with 1×NET buffer (containing 0.5% TX100, 0.1% SDS), the immunocomplexes were mixed with sample buffer and boiled for 5 min. Following centrifugation, the supernatants were aliquoted for scintillation counting and for 3-15% gradient polyacrymide gel electrophoresis (SDS-PAGE) . The gels were later subjected to fluorography. All values are presented as the mean ± S.D. from three individual experiments except as otherwise indicated.
# Hsp70 = Hsp70 levels by denaturing immunoprecipitation of [3H]-leucine radiolabeled HepG2 cells; type: cell-based, human; conditions: HepG2, 4 hours; MG132 10 μM or 30 μM; lactacystin 10 μM; 30 min radiolabeling
# Experimental: The HepG2 cell culture conditions were maintained as previously described (Dixon, et al., 1991). The cells were seeded into collagen-pre-coated dishes or six-well tissue culture plates and grown in complete medium containing minimum essential medium (MEM) with 0.1 mM nonessential amino acids, 1.0 mM sodium pyruvate, penicillin/streptomycin, and 10% fetal bovine serum. Cells were fed fresh complete medium every 3 days and maintained in a 5% CO2 incubator. All experiments were performed by using exponentially growing cells at 90-95% confluency. For heat shock treatment, the dishes were sealed with Parafilm and immersed in a water bath at 42° C. for indicated durations of time. Cells were incubated with ALLN alone at indicated concentrations or combined with other chemicals at 37° C. Cells were also incubated with different protease inhibitors alone at indicated concentrations or combined with other chemicals at 37° C.
# as §1
# Denaturing immunoprecipitation was chosen because Hsp70 is a major cytosolic chaperone protein and it is co-immunoprecipitated with a number of other proteins under non-denaturingconditions (Beckmann, et al., 1990; Zhou, et al., 1995).
# [1] = test system: cysteine protease, serine protease, trypsin or chymotrypsin; conditions: even upon extended exposure, Ward, et al., 1995, Fenteany; cited from earlier work
compound,measurement,setting,value
CC(=O)N[C@@H](CSC(=O)[C@]1([C@@H](O)C(C)C)NC(=O)[C@H](C)[C@@H]1O)C(=O)O [lactacystin],Toxicity to the cells (TCA-precipitable radioactivities),HepG2 cells,without obvious toxicity
same,Induction of Hsp70 levels by proteasome inhibitors,Hsp70,induced Hsp70 levels dramatically
same,"Effect on cysteine protease, serine protease, trypsin or chymotrypsin",[1],no detectable effect
